Test results taken from publication PMC12195615, “In Vitro and In Silico Assessments of Curcuminoids and Turmerones from Curcuma longa as Novel Inhibitors of Leishmania infantum Arginase” (Pharmaceuticals, 2025).
Converted amounts (≈) assume the structure as drawn. Like-named read-outs stand apart in the source and are kept apart here. Marks after values point to notes of the source that are not given here.

Key:
[1] = system: L. major promastigotes; design: method as in PMID 10865470; conditions: cited from earlier work
[2] = system: J774.A.1 macrophages; design: method as in PMID 35325685; conditions: cited from earlier work
[3] = system: Pgp; conditions: affected the uptake of rhodamine-123 and digoxin; cited from earlier work
[4] = system: Leishmania infantum promastigotes; test: Anti-promastigote activity (resazurin), L. infantum; format: cell-based; conditions: for IC50: Leishmania infantum; for L. infantum IC50 ± SE: promastigotes, resazurin
Protocol: (§1) Promastigote forms of Leishmania infantum (MHOM/BR/1974/PP75) and Leishmania amazonensis (IFLA/BR/1967/PH8) were cultured in complete Schneider’s Insect Medium (SIM, 10% FBS). […] Drug-free parasite cultures served as a positive control of viability. […] After 24 h of promastigote incubation, 100 μM resazurin was added, and the cells were cultured for an additional 24 h. At 48 h of the treatment, parasites were assessed fluorometrically (555 nm excitation and 585 nm emission) for viability using a microplate reader Spectra Max M2 (Molecular Devices, CA, USA). Dose–response curves were then generated, and the half-maximal inhibitory concentrations (IC50) for each treatment were determined through regression analysis.

[5] = system: promastigotes and axenic amastigotes of L. donovani; conditions: 15 µM; cited from earlier work
[6] = system: sheep red blood cells (RBC); conditions: for hemolytic activity (CH50) RBC: sheep RBC, 1 h at 37 °C, mean ± SE
Protocol: Blood samples were washed four times with cold PBS to remove plasma, and a 4% (v/v) RBC suspension was prepared in the same buffer. […] After a 1 h incubation at 37 °C, the reaction was stopped by adding 200 µL of PBS. A positive hemolysis control was performed by adding 200 µL of distilled water to untreated cells. The microplates were then centrifuged (2000 rpm/5 min), and 200 µL of the supernatants were transferred to new 96-well microplates for spectrophotometric analysis at 540 nm (SpectraMax M2, Molecular Devices, CA, USA). The percentage of hemolysis for each treatment was calculated relative to the hemolysis control (100%), and the 50% hemolytic concentration (HC50) was determined through regression analysis of the dose–response curves.

[7] = system: Leishmania amazonensis promastigotes; test: Anti-promastigote activity (resazurin), L. amazonensis; format: cell-based; conditions: 48 h
Protocol: as §1

[8] = target: recombinant arginase from L. infantum (LiARG) (Leishmania infantum, UniProt A4IB49); test: LiARG inhibition assay (urea quantification); format: biochemical
Protocol: The expression and purification of recombinant arginase from L. infantum (LiARG) were previously detailed by our group. LiARG inhibition was performed by incubating different concentrations (4.7 to 100 μg/mL) of the samples in the enzymatic reaction solution: 50 mM CHES buffer (pH 9.5) and 50 mM L-arginine. The enzymatic reaction was initiated by adding LiARG (10 μg/mL) and allowed to proceed for 5 min at 37 °C before being stopped on ice. Subsequently, enzymatic activity was assessed by measuring the conversion of L-arginine to urea using a commercial kit (Labtest UREA CE kit®, Lagoa Santa, MG, Brazil). The amount of urea produced in each reaction was determined spectrophotometrically at 600 nm, following its hydrolysis into ammonia and conversion into indophenol blue. […] From that, the IC50 was determined by regression analysis.

[9] = system: intracellular amastigote; conditions: 20 µM, within 24 h of treatment; cited from earlier work
[10] = system: L. braziliensis; conditions: topical 1.5 mg/day, hamsters infected with L. braziliensis; cited from earlier work
[11] = system: mouse arginase; conditions: colorectal cancer model; cited from earlier work
[12] = Cytotoxicity assay (MTT), RAW 264.7; conditions: mouse, RAW 264.7 macrophage cells
Protocol: (§3) RAW 264.7 (murine macrophages) and VERO (normal African green monkey kidney epithelial cells) lines were obtained from Banco de Células do Rio de Janeiro (BCRJ, RJ, Brazil) under the codes 0212 and 0245, respectively. Both were cultured in complete DMEM medium (10% FBS, 100 U/mL penicillin, 100 µg/mL streptomycin, and 3 µg/mL Fungizone®) at 37 °C and 5% CO2 atmosphere. After reaching subconfluence, the cells were washed twice with cold phosphate saline buffer (PBS, pH 7.2), detached by trypsinization, and seeded into 96-well microplates (10^5 cells/100 μL). […] The cells were further incubated under the same conditions for another 48 h. Drug-free cells cultured in DMEM served as positive controls of viability. The concentration of the solvent (DMSO) was normalized in all wells (1%) of treatment and control. Cell viability was assessed using a colorimetric assay based on the reduction of tetrazolium salt [69].

[13] = system: NO production by RAW 264.7 macrophages infected with L. infantum; test: NO production (Griess reaction) by L. infantum-infected macrophages; format: cell-based, murine; conditions: 48 h treatment, compared to untreated control
Protocol: (§2) After adhesion, the cells were incubated for 24 h in the presence of L. infantum promastigotes at a ratio of 10 parasites per macrophage at 35 °C in a 5% CO2 atmosphere. After the interaction period, the wells were washed with PBS to remove non-internalized promastigotes, and the infected macrophages were incubated for 24 h under the same conditions. […] Untreated infected macrophages served as a positive control for amastigote viability. After 48 h of treatment, the supernatant was collected, and the coverslips were stained with Panoptic. […] The IC50 was then calculated using dose–response curve regression analysis.
The supernatant from L. infantum-infected macrophages, treated as described in Section 3.11, was collected to assess NO production using the Griess reaction. In short, 100 µL of the collected supernatants were transferred to 96-well microplates, followed by the addition of an equal volume of Griess reagent (0.5% sulfanilamide and 0.05% naphthylenediamine dihydrochloride in 5% phosphoric acid) to each well. The plates were then incubated at room temperature in the dark for 20 min. After incubation, the absorbance was measured at 570 nm.

[14] = system: L. major promastigotes; conditions: 15 µM; cited from earlier work
[15] = system: L. donovani promastigotes; conditions: read-out: IC50 against L. donovani promastigotes; cited from earlier work
[16] = system: intracellular L. infantum amastigotes; test: Inhibition of intracellular amastigotes in infected RAW 264.7 macrophages; format: cell-based, Leishmania infantum; conditions: for number of amastigotes per 100 infected macrophages: 20 μg/mL, 48 h, vs untreated control, p < 0.05; for IC50: Leishmania infantum
Protocol: as §2

[17] = system: human arginase I; design: method as in PMID 37462864; conditions: cited from earlier work
[18] = system: VERO (normal African green monkey kidney epithelial cells); test: Cytotoxicity assay (MTT), VERO; format: cell-based; conditions: 48 h treatment, mean ± SE
Protocol: as §3

[19] = system: RAW 264.7 (murine macrophages); test: Cytotoxicity assay (MTT), RAW 264.7; conditions: 48 h treatment, MTT; mean ± SE
Protocol: as §3

O=C(/C=C/c1ccc(O)cc1)CC(=O)/C=C/c1ccc(O)cc1 [compound 3, bisdemethoxycurcumin]
IC50 against L. major promastigotes [1]: 21.5 ± 6.9 µg/mL (≈ 69.7 µM)

CC(C)=CC(=O)C[C@H](C)c1ccc(C)cc1 [compound 4, ar-turmerone]
CC50 J774.A.1 macrophages [2]: 720.06 µg/mL (≈ 3330 µM)

COc1cc(/C=C/C(O)=C/C(=O)/C=C/c2ccc(O)cc2)ccc1O [compound 2, demethoxycurcumin]
IC50 against L. major promastigotes [1]: 14.1 ± 4.8 µg/mL (≈ 41.7 µM)

CC(C)=CC(=O)C[C@H](C)C1C=CC(C)=CC1 (stereo partly drawn) [compound 5, α-turmerone]
Pgp inhibition [3]: Pgp inhibitor

COc1cc(/C=C/C(=O)CC(=O)/C=C/c2ccc(O)c(OC)c2)ccc1O [compound 1, curcumin]
IC50 ([4]; 48 h, read-out: L. infantum IC50 ± SE, promastigotes, 48 h, resazurin): 15 µg/mL | IC50 ([4]; read-out: IC50 against L. infantum promastigotes (molar), converted from 15.5 µg/mL): ~42 µM | L. infantum IC50 ± SE ([4]; 48 h, listed as Curcumin (1)): 15.5 ± 1.7 ^c µg/mL | growth of promastigotes and axenic amastigotes of L. donovani [5]: did not inhibit the growth | IC50 against L. major promastigotes [1]: 7.8 ± 3.3 µg/mL (≈ 21.2 µM) | hemolytic activity (CH50) RBC [6]: >200 µg/mL | IC50 ([7]; Leishmania amazonensis, read-out: L. amazonensis IC50 ± SE): 5.5 ± 0.45 µg/mL (≈ 14.9 µM) | IC50 [8]: 47.6 µM | reduction of intracellular amastigote load [9]: 85% | therapeutic response [10]: 83% | reduction of mouse arginase activity [11]: 73% | CC50 at 48 h [12]: 69.8 ± 2.8 µg/mL (≈ 189 µM) | NO levels [13]: reduced NO levels at concentrations starting from 5 µg/mL | growth of L. major promastigotes [14]: did not inhibit the growth | IC50 [15]: 25 µM | number of amastigotes per 100 infected macrophages [16]: significantly reduced | IC50 ([16]; RAW264.7, 48 h, read-out: IC50 against intracellular L. infantum amastigotes): 13.6 µg/mL | IC50 ([16]; RAW264.7, converted from 13.6 µg/mL, read-out: IC50 against L. infantum intracellular amastigotes): ~36.9 µM

CC(C)C1=C[C@H]2[C@@H](CC[C@]2(C)O)[C@](C)(O)CC1 [alismoxide]
inhibitory activity against human arginase I [17]: showed inhibitory activity

O.O.O.O=C([O-])C(O)C(O)C(=O)[O-].O=C([O-])C(O)C(O)C(=O)[O-].[K+].[K+].[Sb].[Sb] (stereo not drawn) [PAT, potassium antimony(III) tartrate hydrate, reference compound]
L. infantum IC50 ± SE ([4]; 48 h): <6.25 µg/mL | hemolytic potential ([6]; at the highest concentration tested (100 μg/mL)): did not show hemolytic potential | hemolytic activity (CH50) RBC [6]: >100 µg/mL | L. amazonensis IC50 ± SE ([7]; promastigotes, resazurin): 11.9 ± 3.1 ^c,d µg/mL | Cytotoxicity (CC50) VERO [18]: 23.9 ± 1.5 ^b μg/mL | Cytotoxicity (CC50) RAW 264.7 [19]: 30.8 ± 0.73 ^b μg/mL | NO levels [13]: increased NO levels at 10 and 20 µg/mL | number of amastigotes per 100 infected macrophages [16]: significantly reduced | IC50 against intracellular L. infantum amastigotes ([16]; infected RAW 264.7, 48 h treatment): 18.9 ± 4.06 µg/mL

O=c1c(O)c(-c2ccc(O)c(O)c2)oc2cc(O)cc(O)c12 [Quercetin (7), Quercetin, reference compound]
IC50 [8]: < 20.7 µM
